{
  "source": "paper PMC11224403",
  "about": "“Des-acyl ghrelin reduces alcohol intake and alcohol-induced reward in rodents” (Translational Psychiatry, 2024)",
  "key": {"male mice": {"system": "male mice", "experiment": "Conditioned place preference (rCPP, mCPP)", "type": "in vivo, NMRI mice", "excerpt": "(§1) Male and female Rcc Han Wistar rats (8–12 weeks old at arrival; Envigo, Horst, Netherlands) were used for the alcohol drinking and locomotor activity experiments as they drink alcohol to intoxicating levels. For in vivo microdialysis studies male Wistar rats (Charles River, Calco, Italy) were used as they display robust dopamine levels in NAc shell after alcohol injection. […] All rodents were allowed to habituate to the animal facility at least one week before they entered an experiment. During housing (20 °C with 50% humidity) the rodents had free access to water and standard chow (Teklad Rodent Diet; Envigo, Madison, WI, USA). These experiments were approved by the Ethics Committee for Animal Experiments (ethical numbers: 1457/18, 3276/18, 1556/18, 3348/20; Gothenburg, Sweden) and followed the ARRIVE guidelines. The sample sizes of each experiment were based on previous experience in which statistical significance has been detected. The person who conducted the experiments, and analyzed the collected data was aware of the treatment allocation. Only preset exclusion criteria were used when analyzing the data obtained in attempts to exclude confounding factors in analyzing data. In the alcohol drinking experiments leaking bottles and low alcohol consumption (<3.0 g/kg for males; <3.5 g/kg for females) were preset exclusion criteria. The preset exclusion criterion in the ex vivo HPLC-EC, ELISA, and recombinant cell line experiments was contamination of the sample. Misplaced probes, technical difficulties, and damages to the surgery area were preset exclusion criteria for the in vivo microdialysis experiment. Intra-cage male aggression was the preset exclusion criterion for the locomotor activity and CPP experiments. To minimize tentative confounding factors, the order of treatments was stratified, with treatments being mixed for each animal cage and for each apparatus used as well as balancing the alcohol intake between future treatment groups. Although each experiment only was performed once, they were separated over different laboratory days with equal data obtained between sessions.\nAlcohol (95%; Solveco AB, Stockholm, Sweden) was either diluted to a 20% solution using tap water (drinking experiment) or to a 15% (w/v) solution with 0.9% NaCl. Alcohol was in the behavioral and neurochemical tests injected (intraperitoneally, IP) 5 min before the test. A dose of 1.75 g/kg was used in male mice as it causes robust locomotor stimulation and induces a CPP [37–39], and 2 g/kg was used for rats as it elevates the dopamine levels in NAc shell. DAG (Tocrise Bioscience, Bristol, UK) was dissolved in 0.9% NaCl in doses (0.25–2 mg/kg) known to reduce food intake and DAG was injected IP). […]"}, "dopamine in NAc shell": {"system": "dopamine in NAc shell", "experiment": "In vivo microdialysis, dopamine release in NAc shell", "set-up": "species or system Wistar rats", "conditions": "n = 8 per group", "excerpt": "as §1, with “During housing (20 °C with 50% humidity) the rodents had free access to water and standard chow (Teklad Rodent Diet; Envigo, Madison, WI, USA). These experiments were approved by the Ethics Committee for Animal Experiments (ethical numbers: 1457/18, 3276/18, 1556/18, 3348/20; Gothenburg, Sweden) and followed the ARRIVE guidelines.” left out, “Although each experiment only was performed once, they were separated over different laboratory days with equal data obtained between sessions.” left out\nThe data from drinking experiments were analyzed by unpaired t-test or repeated two-way ANOVA. A two-tailed unpaired t-test analyzed the ELISA, ex vivo HPLC-EC, and cFOS data. […] A one-way ANOVA with Bonferroni post hoc tests and unpaired t-test analyzed the locomotor activity and CPP data, respectively. The in vivo microdialysis experiments were evaluated by a repeated two-way ANOVA followed by the Bonferroni post hoc test."}, "NET": {"system": "NET", "experiment": "Transporter inhibition in recombinant cell line, NET", "type": "cell-based, human", "conditions": "8.3 µM DAG; recombinant cells, 3 h incubation, fluorescence dye"}, "5HT2A receptor": {"system": "5HT2A receptor", "experiment": "Aquoscreen receptor activity assay, 5HT2A", "type": "cell-based, human", "conditions": "50 µM DAG in results (8.3 µM in methods); luminescence, triplicates"}, "[1]": {"system": "feeding and ghrelin-induced responses", "conditions": "cited from earlier work", "excerpt": "DAG can be found in the plasma after ghrelin is secreted from the gastrointestinal tract and subsequently deacetylated in the serum. […] Based on these findings and given that ghrelin has a prominent role in mediating alcohol-related responses, we hypothesize that DAG decreases such effects in rodents."}, "[2]": {"conditions": "cited from earlier work", "excerpt": "Although DAG altered the neurotransmission of the VTA, the neuronal activi ... || Although DAG reduced alcohol consumption in rats of both sexes, some sex differences were evident. Specifically, after acute DAG treatment the decline in alcohol consumption was evident at the 24-h time point for males and the 4-h time point for females. Moreover, after repeated DAG treatment the decline was similar at each treatment session for males whereas it escalates over time in females."}},
  "data": [
    {"substance": "des-acyl ghrelin (GSSFLSPEHQRVQQRKESKKPPAKLQPR; Ghrelin-28 non-acylated; UniProt Q9UBU3 24-51, looked up) [DAG, non-octanoylated form of ghrelin; purchased from Tocris (printed Tocrise Bioscience), dissolved in 0.9% NaCl]", "values": [
      {"measurement": "memory of alcohol reward (mCPP)", "setting": "male mice; DAG 1 mg/kg at post-conditioning", "value": "did not reduce the memory of alcohol reward (mCPP, t14 = 1.36, P = 0.1955)"},
      {"measurement": "reward of alcohol in conditioned place preference (rCPP)", "setting": "male mice; DAG 1 mg/kg during conditioning with alcohol", "value": "attenuated the reward of alcohol in the conditioned place preference test (rCPP, t12 = 2.69, P = 0.0197)"},
      {"measurement": "rCPP per se", "setting": "male mice; DAG 1 mg/kg, only vehicle control instead of alcohol", "value": "did not influence rCPP (t14 = 0.64, P = 0.5304) per se"},
      {"measurement": "mCPP per se", "setting": "male mice; DAG 1 mg/kg, vehicle during conditioning", "value": "DAG did neither influence locomotor activity, rCPP, mCPP nor accumbal dopamine per se"},
      {"measurement": "dopamine in NAc shell, DAG per se", "setting": "dopamine in NAc shell; DAG 1 mg/kg without alcohol", "value": "did not affect dopamine in the NAc shell per se"},
      {"measurement": "alcohol-induced dopamine release in NAc shell (effect of DAG)", "setting": "dopamine in NAc shell; male rats (methods), DAG 1 mg/kg plus alcohol vs vehicle-alcohol", "value": "suppressed this enhancement (40 min P = 0.0396, 80 min P < 0.0001, 160 min P = 0.0400, 200 min P = 0.0010, 220 min P = 0.0458)"},
      {"measurement": "inhibition of NET", "setting": "NET", "value": "no inhibition"},
      {"measurement": "activation of 5HT2A", "setting": "5HT2A receptor", "value": "no activation"},
      {"measurement": "effects of ghrelin on feeding, gastric emptying, body temperature, glucose and lipid metabolism", "setting": "[1]; ref [30–34]", "value": "blocks the effects of ghrelin on feeding, gastric emptying, body temperature, and glucose and lipid metabolism"},
      {"measurement": "food intake", "setting": "[1]; ref [32]", "value": "decrease food intake"},
      {"measurement": "elimination pathway", "setting": "[2]; ref [63], [64]", "value": "renal clearance has been suggested to be a major pathway for the elimination of DAG"},
      {"measurement": "brain entry", "setting": "[2]; systemic DAG, ref [52]", "value": "enters the brain through non-saturable transmembrane diffusion"}
    ]}
  ]
}
